The text below walks through data of US20200339537A1, “NOVEL COMPOUND AS INHIBITOR AGAINST BINDING OF PF34 PROTEIN TO NEDD4-1 PROTEIN AND USE THEREOF” (ENHANCEDBIO INC., priority 2017, published 2020).

Molecules are shown by their SMILES.

One test has as its system PTEN (lipid phosphatase activity) in human colon cancer cell line SW620. The test is described as follows: cells. As to conditions: Homo sapiens, SW-620, 48 h, compound 5 μM, PTEN immunoprecipitation, diC8-PIP3 substrate, Biomol Green, read-out: PTEN activity (relative fold @5 μM). It counts as cell-based.
As to `O=C(Nc1ccccc1)N1CCN(Cc2ccc3[nH]ccc3c2)CC1` [Example 77], the fold induction at 5 µM amounted to 1.8. Same read-out and setting: then `O=C(NCc1nc2cc(F)ccc2[nH]1)C1CCN(Cc2c[nH]c3ccc(C(F)(F)F)cc23)CC1` [Example 37], with 1.5. The same measure, in the same setting: in the case of `O=C(NCc1cncs1)N1CCN(Cc2ccc3cc[nH]c3c2)CC1` [Example 87] it was 1.9; in that of `O=C(NCc1cncs1)C1CCN(Cc2c[nH]c3ccc(C(F)(F)F)cc23)CC1` [Example 31], 1.5; in that of `O=C(NCc1nc2ccc(F)cc2[nH]1)C1CCN(Cc2ccc3[nH]ccc3c2)CC1` [Example 14], 3.8.

Take `CC(NC(=O)C1CCN(Cc2ccc3[nH]ccc3c2)CC1)c1nc2ccccc2[nH]1` (centres unmarked) [Example 13]: the fold induction at 5 µM was 3.2. As for `O=C(Nc1ncccn1)N1CCN(Cc2ccc3[nH]ccc3c2)CC1` [Example 73], the fold induction at 5 µM is 2.1.

Regarding `CC(NC(=O)C1CCN(Cc2c[nH]c3ccccc23)CC1)c1nc2ccccc2[nH]1` (centres unmarked) [Example 49], the fold induction at 5 µM turned out to be 1.9.

In the case of `O=C(NCc1nccs1)N1CCN(Cc2c[nH]c3ccc(Cl)cc23)CC1` [Example 76], the fold induction at 5 µM turned out to be 1.7. Turning to `Cc1cc2nc(CNC(=O)C3CCN(Cc4c[nH]c5ccc(Cl)cc45)CC3)[nH]c2cc1C` [Example 3], the fold induction at 5 µM is 1.5. Turning to `CN(Cc1nc2ccccc2n1C)C(=O)N1CCN(Cc2c[nH]c3ccc(Cl)cc23)CC1` [Example 69], the fold induction at 5 µM was 1.6. Regarding `O=C(NCc1nc2cc(F)c(F)cc2[nH]1)C1CCN(Cc2c[nH]c3ccccc23)CC1` [Example 53], the fold induction at 5 µM is 1.8.

Consider `Cn1cc(CN2CCC(C(=O)NCc3nc4ccccc4[nH]3)CC2)c2ccccc21` [Example 59], for which the fold induction at 5 µM was 2. Regarding `Cn1c(CNC(=O)C2CCN(Cc3ccc4[nH]ccc4c3)CC2)nc2ccccc21` [Example 27], the fold induction at 5 µM was determined as 1.8. With `CC(NC(=O)C1CCN(Cc2c[nH]c3ccc(Cl)cc23)CC1)c1nc2ccccc2[nH]1` (centres unmarked) [Example 5], the fold induction at 5 µM came out at 1.5. Take `O=C(NCc1cncs1)C1CN(Cc2c[nH]c3ccc(C(F)(F)F)cc23)C1` [Example 36]: the fold induction at 5 µM was 1.7. In the case of `CC(NC(=O)C1CCN(Cc2c[nH]c3ccc(F)cc23)CC1)c1nc2ccccc2[nH]1` (centres unmarked) [Example 50], the fold induction at 5 µM was found to be 2.6. With `O=C(NCc1nc2cc(F)c(F)cc2[nH]1)C1CCN(Cc2c[nH]c3ccc(F)cc23)CC1` [Example 48], the fold induction at 5 µM was determined as 1.6. The same measure, in the same setting: then `Cc1[nH]c2ccc(CN3CCN(C(=O)NCc4nccs4)CC3)cc2c1C` [Example 88], with 2.2.

The same test, now with this note: compound 5 μM, 48 hours, PTEN immunoprecipitation, diC8-PIP3 substrate, Biomol Green.
`CN(Cc1nc2ccccc2n1C)C(=O)N1CCN(Cc2c[nH]c3ccc(Cl)cc23)CC1` [Example 70]: the “PTEN activity (relative fold @5 μM)” value worked out at 2.1 fold.

The target in the next test is T1, binding between p34 protein and NEDD4-1 protein (Homo sapiens, UniProt P46934+Q9UHV2).
T1 construct: FLAG or 6xHis (known only from the detection antibodies)
T1 sequence (P46934 1-1319): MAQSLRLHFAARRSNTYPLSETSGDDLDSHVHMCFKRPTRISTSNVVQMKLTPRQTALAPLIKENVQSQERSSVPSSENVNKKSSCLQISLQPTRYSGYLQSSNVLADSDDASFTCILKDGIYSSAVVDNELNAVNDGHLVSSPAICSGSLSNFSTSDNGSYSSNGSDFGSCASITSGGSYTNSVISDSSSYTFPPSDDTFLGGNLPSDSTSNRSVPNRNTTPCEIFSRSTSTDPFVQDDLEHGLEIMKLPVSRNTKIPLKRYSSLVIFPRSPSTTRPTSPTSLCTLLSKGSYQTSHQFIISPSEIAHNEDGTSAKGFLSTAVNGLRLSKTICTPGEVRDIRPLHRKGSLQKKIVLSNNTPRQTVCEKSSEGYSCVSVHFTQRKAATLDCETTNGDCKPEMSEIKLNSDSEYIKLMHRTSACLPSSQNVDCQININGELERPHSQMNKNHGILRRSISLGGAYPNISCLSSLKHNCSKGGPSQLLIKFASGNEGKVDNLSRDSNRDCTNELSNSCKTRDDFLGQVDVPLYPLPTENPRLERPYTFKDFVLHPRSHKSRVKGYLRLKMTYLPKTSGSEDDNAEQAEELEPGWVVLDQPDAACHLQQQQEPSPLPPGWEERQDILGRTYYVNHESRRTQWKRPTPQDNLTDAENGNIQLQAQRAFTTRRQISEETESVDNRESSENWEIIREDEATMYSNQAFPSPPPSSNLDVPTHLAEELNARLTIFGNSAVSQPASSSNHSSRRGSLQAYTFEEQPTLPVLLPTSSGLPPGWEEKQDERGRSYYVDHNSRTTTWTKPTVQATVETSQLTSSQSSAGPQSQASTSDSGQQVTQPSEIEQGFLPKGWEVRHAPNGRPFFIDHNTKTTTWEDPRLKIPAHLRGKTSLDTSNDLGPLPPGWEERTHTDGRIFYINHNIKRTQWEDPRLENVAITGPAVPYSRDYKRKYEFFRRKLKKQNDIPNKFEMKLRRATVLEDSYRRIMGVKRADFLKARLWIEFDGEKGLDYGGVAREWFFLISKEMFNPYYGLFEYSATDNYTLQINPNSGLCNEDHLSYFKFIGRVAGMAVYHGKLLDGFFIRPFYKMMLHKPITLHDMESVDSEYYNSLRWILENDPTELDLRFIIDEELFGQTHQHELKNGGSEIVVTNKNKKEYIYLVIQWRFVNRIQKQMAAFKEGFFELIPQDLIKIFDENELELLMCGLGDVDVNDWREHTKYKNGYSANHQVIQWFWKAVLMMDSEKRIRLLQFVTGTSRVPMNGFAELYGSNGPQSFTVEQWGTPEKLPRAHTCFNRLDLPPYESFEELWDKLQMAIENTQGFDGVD
T1 sequence (Q9UHV2 1-236): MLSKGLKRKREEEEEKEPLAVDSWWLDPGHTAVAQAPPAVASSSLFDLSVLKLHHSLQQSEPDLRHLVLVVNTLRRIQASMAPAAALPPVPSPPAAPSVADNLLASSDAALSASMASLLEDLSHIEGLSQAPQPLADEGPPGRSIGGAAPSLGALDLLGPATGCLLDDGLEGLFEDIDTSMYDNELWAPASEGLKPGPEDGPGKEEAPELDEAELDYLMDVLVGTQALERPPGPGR
The test is described as follows: Inhibitory activity on binding between p34 and NEDD4-1, FRET (HTRF) assay. As to conditions: compound 10 μM; 1×PBS pH 7.4, 0.1% BSA, 2% DMSO; 384-well; 10 µM. The protocol: Inhibitory activity of the compound on binding between p34 and NEDD4-1 was evaluated using p34 protein and NEDD4-1 protein based on the HTRF technology developed by Cisbio. In this assay, a fluorescence resonance energy transfer (FRET) signal was measured in the presence of terbium-labeled anti-FLAG antibody and d2-labeled anti-6XHis antibody. Experiments were performed in 384-well plates under a condition of 1×PBS pH 7.4, 0.1% BSA, and 2% DMSO. A background signal was measured in the absence of the p34-NEDD4-1 proteins, and a non-inhibiting signal was measured with addition of only a solvent (2% DMSO). […] Subsequently, inhibitory activity of the compound on p34-NEDD4-1 was calculated in %.
(In TR-FRET formats the signal depends on donor and acceptor labels being close together.)
On to `O=C(NCc1nc2ccccc2[nH]1)C1CCN(Cc2c[nH]c3ccc(C(F)(F)F)cc23)CC1` [Example 8], for which the “FRET result (Inhibition % @10 μM)” value was 49.4%.

Staying with this test, now noted: pH 7.4, compound 10 μM; 1×PBS pH 7.4, 0.1% BSA, 2% DMSO; 384-well.
`O=C(Nc1ccccc1)N1CCN(Cc2ccc3[nH]ccc3c2)CC1` [Example 77]: 10 µM produced 35.3% inhibition. Regarding `O=C(NCc1nc2cc(F)ccc2[nH]1)C1CCN(Cc2c[nH]c3ccc(C(F)(F)F)cc23)CC1` [Example 37], 10 µM produced 39.4% inhibition. On the same count and under the same terms, then `Cn1c(CNC(=O)C2CCN(Cc3c[nH]c4ccc(C(F)(F)F)cc34)CC2)nc2ccccc21` [Example 40], with 42.8%; and `O=C(NCc1cncs1)N1CCN(Cc2ccc3cc[nH]c3c2)CC1` [Example 87], with 48.7%. For `O=C(NCc1cncs1)C1CCN(Cc2c[nH]c3ccc(C(F)(F)F)cc23)CC1` [Example 31], at 10 µM the inhibition was 58.6%.

Take `O=C(NCc1cnccn1)C1CCN(Cc2ccc3[nH]ccc3c2)CC1` [Example 26]: the inhibition (usually the share of the control response that was lost under treatment) at 10 µM was 42%.

Take `O=C(NCc1nc2ccc(F)cc2[nH]1)C1CCN(Cc2ccc3[nH]ccc3c2)CC1` [Example 14]: at 10 µM the inhibition was 44.1%. `CC(NC(=O)C1CCN(Cc2ccc3[nH]ccc3c2)CC1)c1nc2ccccc2[nH]1` (centres unmarked) [Example 13]: the inhibition at 10 µM came to 38.9%. The same measure, in the same setting: in the case of `CC(NC(=O)N1CCN(Cc2c[nH]c3ccc(Cl)cc23)CC1)c1nc2ccccc2[nH]1` (centres unmarked) [Example 65] it was 53.1%. Same read-out and setting: then `O=C(NCc1nccs1)C1CCN(C(=O)c2ccc3[nH]ccc3c2)CC1` [Example 28], with 34.5%.

For `CCC(NC(=O)C1CCN(Cc2ccc3[nH]ccc3c2)CC1)c1nc2ccccc2[nH]1` (centres unmarked) [Example 24], at 10 µM the inhibition was 53%. For `O=C(Nc1ncccn1)N1CCN(Cc2ccc3[nH]ccc3c2)CC1` [Example 73], the inhibition at 10 µM was determined as 53.5%. In the case of `Cn1c(CNC(=O)N2CCN(Cc3c[nH]c4ccc(Cl)cc34)CC2)nc2ccccc21` [Example 63], the inhibition at 10 µM turned out to be 52.3%. `Cn1cc(CN2CCC(C(=O)NCc3nc4ccccc4[nH]3)CC2)c2cc(F)ccc21` [Example 51] came in with an inhibition at 10 µM of 56.2%. On to `O=C(NCc1nccs1)C1CCN(Cc2ccc3[nH]ccc3c2)CC1` [Example 12], for which the inhibition at 10 µM turned out to be 39.2%. In turn, `O=C(NCc1nc2ccccc2[nH]1)C1CCN(Cc2c[nH]cn2)CC1` [Example 22] had an inhibition at 10 µM of 48.1%. `Cc1ccc2nc(C(C)NC(=O)C3CCN(Cc4c[nH]c5ccccc45)CC3)[nH]c2c1` (centres unmarked) [Example 56]: the inhibition at 10 µM amounted to 56.2%. For `O=C(NCc1nc2ccccc2[nH]1)C1CCN(Cc2c[nH]c3cc(F)c(F)cc23)CC1` [Example 60], testing at 10 µM gave an inhibition of 38.4%. Compound `CN(Cc1nc2ccccc2[nH]1)C(=O)C1CCN(Cc2c[nH]c3ccccc23)CC1` [Example 52] yielded an inhibition at 10 µM of 32.4%.

`O=C(NCc1nc2ccccc2[nH]1)C1CCN(Cc2ccc3[nH]ccc3c2)CC1` [Example 23] came in with an inhibition at 10 µM of 38.2%.

For the compound `CCC(NC(=O)C1CCN(Cc2c[nH]c3ccc(Cl)cc23)CC1)c1nc2ccccc2[nH]1` (centres unmarked) [Example 7], the inhibition at 10 µM was 59%. With `O=C(NCc1cnccn1)C1CCN(Cc2c[nH]c3ccc(Cl)cc23)CC1` [Example 10], 10 µM produced 39% inhibition. As for `O=C(NCc1nc2ccccc2[nH]1)N1CCN(Cc2c[nH]c3ccc(Cl)cc23)CC1` [Example 75], the inhibition at 10 µM was 52.4%. For `O=C(NCc1ncc[nH]1)C1CCN(Cc2ccc3[nH]ccc3c2)CC1` [Example 15], at 10 µM the inhibition was 60.4%.

As for `O=C(NC(Cc1ccccc1)c1nc2ccccc2[nH]1)C1CCN(Cc2ccc3[nH]ccc3c2)CC1` (centres unmarked) [Example 21], 10 µM produced 56.6% inhibition. For `Cc1ccc2nc(C(C)NC(=O)C3CCN(Cc4c[nH]c5ccc(Cl)cc45)CC3)[nH]c2c1` (centres unmarked) [Example 2], the inhibition at 10 µM came out at 42.4%. Consider `O=C(NCc1nc2ccccc2[nH]1)C1CCN(Cc2c[nH]c3ccc(C(F)(F)F)cc23)CC1` [Example 41], for which the inhibition at 10 µM was determined as 42.8%. `O=C(NCc1ncc[nH]1)C1CCN(Cc2c[nH]c3ccc(Cl)cc23)CC1` [Example 9]: 10 µM produced 58.4% inhibition. The same measure, in the same setting: then `O=C(NCc1nc2ccccc2[nH]1)C1CCN(Cc2c[nH]c3ccc(F)cc23)CC1` [Example 47], with 30.5%; and `O=C(NCc1nccs1)C1CCN(Cc2c[nH]c3ccc(Cl)cc23)CC1` [Example 11], with 39.1%; and `Cn1c(CNC(=O)C2CCN(Cc3c[nH]c4ccccc34)CC2)nc2ccccc21` [Example 46], with 42.9%. The same measure, in the same setting: then `O=C(NCc1cnccn1)C1CCN(Cc2c[nH]c3ccc(C(F)(F)F)cc23)CC1` [Example 38], with 36.6%.
